Test results from US5292737A, “N,N'-bis(sulfonamido)-2-amino-4-iminonaphthalen-1-ones and N,N'-bis(amido)-2-amino-4-iminonaphthalen-1-ones” (Sphinx Pharmaceuticals Corporation, priority 1992, dated 1994).
Like-named read-outs stand apart in the source and are kept apart here.

Columns and labels:
PKC isoenzyme α = biological target: T1, PKC isoenzyme α (Homo sapiens, UniProt P17252); test: Protein kinase C inhibition assay, PKC isoenzyme α; format: biochemical; details: read-out: IC50 PKC α
T1 construct: made in house; host or cells: baculovirus-insect cell expression system
Procedure: (§1) A protein kinase C (PKC) assay is designed to duplicate the in vivo conditions required for protein kinase C function. Therefore, pH, salt and cofactor concentrations are similar to physiologic levels. Either lysine rich histone H1 (H1) or Myelin basic protein (Mbp) are used in the assay as the phosphorylation acceptor-protein because they are readily available and serve as good substrates for protein kinase C. Enzyme was prepared from baculovirus-insect cell expression systems.
(§2) In the screening assay, phosphatidylserine (PS) and DAG were co-sonicated to form unilamellar and multilamellar vesicles. The concentration of lipids in the assay were suboptimal to maximize the detection potential of the assay for inhibitors or activators. Potential effector compounds were added to the assay in dimethylsulfoxide at four concentrations to give final inhibitor concentrations of 1, 10, 50, and 150 μM, respectively.
(§3) The assay was started with the addition of enzyme and stopped after 10 min by the addition of 25% trichloroacetic acid (TCA) and 1.0 mg/ml bovine serum albumin (BSA). The radioactive histone product was retained and washed on glass fiber filters that allow the unreacted P-ATP to pass through. The amount of phosphorylation was determined by measuring radioactivity with a scintillation counter. Controls were included in every assay to measure background activity in the absence of enzyme, activity in the absence of lipids, and the maximum enzyme activity with saturating levels of the activator lipids.
(§4) Results of the protein kinase C assay are shown in Table 4 in columns labeled α, βII, γ, δ, ε, and .zeta. which represent various PKC isoenzymes. Results are show as IC50, which is the concentration of test compound needed to inhibit 50% of the protein kinase C activity in controls.

PKC isoenzyme βII = biological target: T2, PKC isoenzyme βII (Homo sapiens, UniProt P05771); test: Protein kinase C inhibition assay, PKC isoenzyme βII; format: biochemical; details: read-out: IC50 PKC βII
T2 construct: made in house; host or cells: baculovirus-insect cell expression system
Procedure: as §1, §2, §3, §4

PKC isoenzyme γ = biological target: T3, PKC isoenzyme γ (Homo sapiens, UniProt P05129); test: Protein kinase C inhibition assay, PKC isoenzyme γ; format: biochemical; details: read-out: IC50 PKC γ
T3 construct: made in house; host or cells: baculovirus-insect cell expression system
Procedure: as §1, §2, §3, §4

PKC isoenzyme δ = biological target: T4, PKC isoenzyme δ (Homo sapiens, UniProt Q05655); test: Protein kinase C inhibition assay, PKC isoenzyme δ; format: biochemical; details: read-out: IC50 PKC δ
T4 construct: made in house; host or cells: baculovirus-insect cell expression system
Procedure: as §1, §2, §3, §4

PKC isoenzyme ε = biological target: T5, PKC isoenzyme ε (Homo sapiens, UniProt Q02156); test: Protein kinase C inhibition assay, PKC isoenzyme ε; format: biochemical; details: read-out: IC50 PKC ε
T5 construct: made in house; host or cells: baculovirus-insect cell expression system
T5 sequence (Q02156 1-737): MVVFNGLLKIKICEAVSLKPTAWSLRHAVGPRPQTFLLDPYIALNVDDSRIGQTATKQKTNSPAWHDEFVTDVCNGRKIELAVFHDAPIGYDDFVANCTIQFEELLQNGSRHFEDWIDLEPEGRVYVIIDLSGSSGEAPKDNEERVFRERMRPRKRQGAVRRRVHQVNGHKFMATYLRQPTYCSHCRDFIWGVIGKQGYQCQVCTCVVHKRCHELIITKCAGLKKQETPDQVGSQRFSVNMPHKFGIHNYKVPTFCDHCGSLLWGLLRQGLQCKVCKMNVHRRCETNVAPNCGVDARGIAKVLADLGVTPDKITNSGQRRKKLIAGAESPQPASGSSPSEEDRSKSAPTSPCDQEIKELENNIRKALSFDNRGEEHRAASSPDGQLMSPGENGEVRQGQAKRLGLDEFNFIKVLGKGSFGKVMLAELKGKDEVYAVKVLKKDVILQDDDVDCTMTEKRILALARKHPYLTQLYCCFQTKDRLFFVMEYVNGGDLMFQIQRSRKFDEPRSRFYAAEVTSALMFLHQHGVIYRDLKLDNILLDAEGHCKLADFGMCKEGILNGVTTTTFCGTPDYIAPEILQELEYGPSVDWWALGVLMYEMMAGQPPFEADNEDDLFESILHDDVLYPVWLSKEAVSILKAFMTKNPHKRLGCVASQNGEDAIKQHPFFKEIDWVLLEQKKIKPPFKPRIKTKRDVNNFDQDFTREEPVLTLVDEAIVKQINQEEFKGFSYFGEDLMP
Procedure: as §1, §2, §3, §4

PKC isoenzyme ζ = biological target: T6, PKC isoenzyme ζ (Homo sapiens, UniProt Q05513); test: Protein kinase C inhibition assay, PKC isoenzyme ζ; format: biochemical; details: read-out: IC50 PKC .zeta.
T6 construct: made in house; host or cells: baculovirus-insect cell expression system
T6 sequence (Q05513 1-592): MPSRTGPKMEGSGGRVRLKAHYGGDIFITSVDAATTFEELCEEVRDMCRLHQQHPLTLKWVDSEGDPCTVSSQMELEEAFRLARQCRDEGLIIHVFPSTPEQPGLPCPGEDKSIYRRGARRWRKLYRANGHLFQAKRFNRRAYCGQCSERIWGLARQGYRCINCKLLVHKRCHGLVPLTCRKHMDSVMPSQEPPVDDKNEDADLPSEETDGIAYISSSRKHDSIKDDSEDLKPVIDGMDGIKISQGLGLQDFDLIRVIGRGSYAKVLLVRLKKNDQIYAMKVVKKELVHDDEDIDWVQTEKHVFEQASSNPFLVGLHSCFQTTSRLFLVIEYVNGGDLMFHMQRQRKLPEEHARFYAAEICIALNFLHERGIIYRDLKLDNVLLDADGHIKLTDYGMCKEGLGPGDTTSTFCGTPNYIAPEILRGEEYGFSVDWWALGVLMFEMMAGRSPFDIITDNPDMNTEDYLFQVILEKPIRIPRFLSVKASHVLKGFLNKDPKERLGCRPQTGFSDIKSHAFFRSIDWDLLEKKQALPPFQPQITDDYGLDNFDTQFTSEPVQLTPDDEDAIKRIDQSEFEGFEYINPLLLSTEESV
Procedure: as §1, §2, §3, §4

[1] = biological target: cAMP dependent protein kinase (PKA); test: cAMP Dependent Protein Kinase (PKA) Assay; format: biochemical
Procedure: Compounds found to be inhibitors of protein kinase C were tested for inhibitory activity against cAMP dependent protein kinase (PKA). This enzyme, like protein kinase C, plays an important role in cell-cell communication and is activated by a second messenger, cAMP. Secondary screening against PKA is useful for ascertaining the selectivity of the compounds of the invention.
The catalytic subunit of PKA (Sigma Chemical Company, St. Louis, Mo.) was mixed with buffer before addition of the inhibitor in dimethylsulfoxide (DMSO). Potential inhibitor compounds were added to the assay in dimethylsulfoxide at two concentrations to give final inhibitor concentrations of 30 and 150 μM, respectively. The assay was started by the addition of ^32 P-ATP and the reaction was allowed to proceed for 10 min before stopping with 25% trichloroacetic acid (TCA) and 1.0 mg/ml bovine serum albumin (BSA). Phosphorylated protein was then isolated by filtration and the radioactivity was counted by a beta scintillation counter.

[2] = system: normal human epidermal keratinocyte (NHEK) cells; test: Human Keratinocyte Inhibition (3H TdR Assay); format: cell-based; details: 24 h incubation, 3H-thymidine
Procedure: Proliferating normal human epidermal keratinocyte (NHEK) cells were obtained in the second passage and grown in keratinocyte growth medium, KGM (Clonetics, Inc.) at 37° C., 5% CO2. The cells were trypsinized (0.25%), centrifuged, counted with a hemocytometer, and seeded at a concentration of 5000 cells in 100 μl well in a 96-well microtiter plate.
After the cells were allowed to attach to the microtiter plate overnight, test agents were titrated to determine the dose response. This was done by adding each test agent dilution in quadruplicate to the plate at 2× final concentration in 100 μl to bring the total volume of each well to 200 μl. Culture media with no test agent added was used as a normal control. Duplicate sets of plates were established.
After twenty-four hours of incubation with test compounds 37° C. and 5% CO2, […] of 0.01 mCi/ml tritiated thymidine (New England Nuclear) was added to each well and allowed to incubate for another 4 hours under the same conditions.
Supernatant was aspirated and discarded and […] of 0.05% trypsin (Gibco) was added to each cell. Cells were checked microscopically to determine detachment from surfaces and then harvested onto glass filters. The filters were then placed in vials to which scintillant was added and counted for one minute each in a scintillation counter.
Determine mean cpm of wells containing test agent (n=4) or KGM control (n=16). Calculate % of control by the formula: [formula]
The IC50, or connection necessary to inhibit 50% of control, of each test agent was determined by plotting % control vs log concentration for each dilution and then linear forecasting the 50% control value onto the X axis on a Quatro Pro computer program. Only regression values with a correlation coefficient greater than 0.9 were considered acceptable.

human neutrophils = test: Neutrophil Superoxide Anion (O2) Release Assay, PMA-stimulated; format: cell-based; details: Homo sapiens, Neutrophil, read-out: Neutrophil Superoxide Release IC50
From the text: Phorbol-12,13-myristate acetate (PMA) stimulates O2 production in human neutrophils which in turn reduces cytochrome C. Reducing cytochrome C increases absorbance and the change in optical density (OD) is proportional to the amount of O2 produced by PMA stimulation. Inhibition is expressed as an IC50 value and is the amount of test compound that will inhibit fifty percent of the PMA-stimulated respiratory outburst, i.e. O2^31 production (Lherer et al. (1981) J. Clinical lnvest. 68:1314; Roberts et al. (1982) J. Immunological Methods 49:193).
Human donor blood in 0.38% Sodium Citrate was centrifuged for 10 minutes at 160 ×g at room temperature. Platelet-rich plasma was removed leaving the buffy coat and the red cell-enriched fraction. Saline with 0.38% Sodium Citrate was added to this fraction up to the original blood volume. The enriched blood sample was diluted 1:1 (v:v) with 3% dextran T500 (Pharmacia) in normal saline and placed in a 60 cc syringe, inverted over a beaker and allowed to settle 30 minutes at room temperature.
Leukocyte-enriched plasma was removed from the syringe, placed into 50 ml polypropylene conical centrifuge tubes and underlaid with 15-20 ml Lymphocyte Separation Medium (LSM Organon Technica). The tubes were centrifuged for 40 minutes at 500×g at room temperature. The plasma, buffy coat and LSM were aspirated off the pellets which contained red blood cells and neutrophils.
The pellets were vortexed and 10 ml ice-cold 0.2% NaCl was added to lyse the red blood cells while vortexing again for 10 seconds. Ice-cold 1.6% NaCl was added while vortexing for 10 seconds. The cells were combined from multiple tubes, centrifuged 10 min at 400×g at 4° C. This red cell lysis was repeated and the resulting neutrophil pellet was washed once in Reaction HBSS (GIBCO, HBSS with Ca^++ and Mg^++,.238% HEPES, 0.1% dextrose, 0.1% RIA grade bovine serum albumin, PH 7.2). The cells were resuspended in 1/5 the original blood volume with Reaction HBSS, counted and adjusted to 4.0×10^6 cells/ml at 4° C.
Duplicate samples of neutrophils were tested in 12×75 mm polypropylene tubes containing 0.25 ml of the neutrophil suspension. Cytochrome C mix (0.25 ml, 6.0 mg/ml cytochrome C type IV (Sigma) plus 1200 U/ml bovine liver catalase (Sigma) in Reaction HBSS described above) was added. PMA was added at 2×the final concentration in 0.5 ml of Reaction HBSS. PMA final test concentration were 0.0, 0.3, 9.0, 27.0, and 81.0 ng/ml. The tubes were vortexed and incubated for 10 minutes at 37° C. with shaking. After chilling for 5 minutes at 4° C. and centrifuging for 10 minutes at 4° C., 550×g, 0.5 ml of supernatant was removed from each tube. Normal saline (0.5 ml) was added to each 0.5 ml sample of supernatant and the absorbance of each sample was read at 550 nm on a spectrophotometer (Shimadzu). The PMA concentration which gives nearly maximal stimulation of superoxide release was determined.
The test samples of neutrophils were prepared as in the PMA dose response through addition of cytochrome C mix. Then 0.4 ml of Reaction HBSS as a control or test agent at 2.5×final test concentration was added and the tubes were vortexed and incubated for 30 minutes at 37° C. with shaking. PMA (0.1 ml) was added at a 10× concentration of the final concentration determined above. The samples were incubated for 10 minutes at 37° C. with shaking, chilled for 5 minutes at 4° C., and then centrifuged for 5 minutes at 550×g at 4° C. The supernatant (0.5 ml) was diluted with 0.5 ml normal saline as above and the absorbance was then determined at 550 nm. The percent change was calculated as follows: [formula] D-sphingosine (Sigma) used as reference standard.
Human neutrophils were first isolated according to Lherer et al. ((1981) J. Clinical Invest. 68:1314) and then tested for stimulation of superoxide anion release with phorbol--12,13-myristate acetate (PMA) in a dose-dependent manner. […]

T2 sequence (P05771 1-673 isoform P05771-2): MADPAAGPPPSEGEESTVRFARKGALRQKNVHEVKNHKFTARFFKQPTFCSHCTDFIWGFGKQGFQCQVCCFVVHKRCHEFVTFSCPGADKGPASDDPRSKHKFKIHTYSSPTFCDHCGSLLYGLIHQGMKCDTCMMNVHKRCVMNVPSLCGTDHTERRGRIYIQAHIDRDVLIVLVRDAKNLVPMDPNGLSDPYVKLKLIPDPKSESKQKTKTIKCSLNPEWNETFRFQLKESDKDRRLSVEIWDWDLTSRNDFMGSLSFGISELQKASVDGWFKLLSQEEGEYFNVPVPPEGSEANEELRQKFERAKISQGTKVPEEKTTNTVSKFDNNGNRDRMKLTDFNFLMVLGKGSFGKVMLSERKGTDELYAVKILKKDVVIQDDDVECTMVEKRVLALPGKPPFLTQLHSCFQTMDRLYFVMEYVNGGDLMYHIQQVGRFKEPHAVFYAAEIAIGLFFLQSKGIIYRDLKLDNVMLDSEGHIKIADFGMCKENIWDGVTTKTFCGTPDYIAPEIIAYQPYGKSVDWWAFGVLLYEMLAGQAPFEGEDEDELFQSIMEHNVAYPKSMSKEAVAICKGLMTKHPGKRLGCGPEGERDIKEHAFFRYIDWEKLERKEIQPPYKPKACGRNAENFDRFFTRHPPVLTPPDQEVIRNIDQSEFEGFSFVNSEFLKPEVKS
T4 sequence (Q05655 whole entry): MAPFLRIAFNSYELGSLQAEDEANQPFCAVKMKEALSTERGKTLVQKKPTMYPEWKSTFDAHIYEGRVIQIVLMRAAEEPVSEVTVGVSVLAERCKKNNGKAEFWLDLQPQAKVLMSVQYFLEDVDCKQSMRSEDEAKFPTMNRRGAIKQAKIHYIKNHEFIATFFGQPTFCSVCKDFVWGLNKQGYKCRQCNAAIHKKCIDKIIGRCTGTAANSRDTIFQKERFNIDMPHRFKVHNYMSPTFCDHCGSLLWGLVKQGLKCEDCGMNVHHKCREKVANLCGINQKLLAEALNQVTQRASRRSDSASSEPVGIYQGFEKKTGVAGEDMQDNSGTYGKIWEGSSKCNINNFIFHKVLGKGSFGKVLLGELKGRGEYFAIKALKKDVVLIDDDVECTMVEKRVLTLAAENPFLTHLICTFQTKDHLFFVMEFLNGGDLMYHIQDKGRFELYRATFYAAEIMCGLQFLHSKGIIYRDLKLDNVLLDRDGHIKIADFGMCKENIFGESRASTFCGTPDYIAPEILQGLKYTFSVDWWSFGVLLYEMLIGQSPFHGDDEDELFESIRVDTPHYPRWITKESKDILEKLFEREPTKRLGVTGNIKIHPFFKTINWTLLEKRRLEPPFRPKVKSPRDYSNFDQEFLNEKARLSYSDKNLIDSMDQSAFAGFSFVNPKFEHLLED

IC50 (PKC isoenzyme α)	IC50 (PKC isoenzyme βII)	IC50 (PKC isoenzyme γ)	IC50 (PKC isoenzyme δ)	IC50 (PKC isoenzyme ε)	IC50 (PKC isoenzyme ζ)	IC50 ([1]; catalytic subunit of PKA)	effect on PKA activity ([1]; result in words)	IC50 (human neutrophils; PMA-stimulated human neutrophils)	Structure (SMILES)	IC50 [2]	IC50 (human neutrophils)
125 µM	> 150 µM	76 µM	> 150 µM	> 150 µM	> 150 µM	–	–	–	N=C(N)NS(=O)(=O)c1ccc(N=C2C=C(Nc3ccc(S(=O)(=O)NC(=N)N)cc3)C(=O)c3ccccc32)cc1 [Compound 3ab]	–	–
35 µM	50 µM	29 µM	39 µM	> 150 µM	–	> 150 µM	did not effect on PKA activity	–	Cc1noc(NS(=O)(=O)c2ccc(N=C3C=C(Nc4ccc(S(=O)(=O)Nc5onc(C)c5C)cc4)C(=O)c4ccccc43)cc2)c1C [Compound 6b]	16.7 µM	–
116 µM	–	16 µM	–	–	35 µM	–	–	6.83 µM	O=C1C(Nc2ccc(S(=O)(=O)Nc3ncccn3)cc2)=CC(=Nc2ccc(S(=O)(=O)Nc3ncccn3)cc2)c2ccccc21 [Compound 6k]	–	–

Continued, compound first:

Structure (SMILES)	IC50 (PKC isoenzyme α)	IC50 (PKC isoenzyme βII)	IC50 (PKC isoenzyme γ)	IC50 (PKC isoenzyme δ)	IC50 (PKC isoenzyme ε)	IC50 (PKC isoenzyme ζ)	IC50 ([1]; catalytic subunit of PKA)	effect on PKA activity ([1]; result in words)	IC50 (human neutrophils; PMA-stimulated human neutrophils)	IC50 [2]	IC50 (human neutrophils)
Cc1cc(C)nc(NS(=O)(=O)c2ccc(N=C3C=C(Nc4ccc(S(=O)(=O)Nc5cc(C)cc(C)n5)cc4)C(=O)c4ccccc43)cc2)c1 [Compound 3aj]	90 µM	> 150 µM	88 µM	> 150 µM	> 150 µM	> 150 µM	–	–	–	–	–
CCCCCCCCCCCCCCCCNS(=O)(=O)c1ccc(N=C2C=C(Nc3ccc(S(=O)(=O)NCCCCCCCCCCCCCCCC)cc3)C(=O)c3ccccc32)cc1 [Compound 6o]	100 µM	99 µM	94 µM	102 µM	–	> 150 µM	–	–	–	–	–
CCCCCCCCCCCCC/C=C/[C@@H](O)[C@@H](N)CO [D--sphingosine, D-sphingosine, reference compound]	–	–	–	–	–	–	–	–	–	–	2.85 µM
